Results published in patent US4518611A, “2-Furylbutyrolactone modulation of the immune system in mammals” (priority 1983, dated 1985).
Where two headings read alike, the source gives them in different places.

Key:
C57BL/6 mice = conditions: for Number Dead on Day 3: ten mice per dose
Method: Single dose LD50 in C57BL/6 mice for Cpd. 1 is determined following the method of Spearman and Karber described in Basic Exercises in Immunochemistry, 1979. Briefly, 0.5 ml of each dose is given to each of ten mice. The survivors are counted after 3 days and the LD50 is calculated using the following formula: [formula] where D=fold diferences between doses, R=total number dead, and N=total number of animals tested.

CD rats = conditions: 14 days
Method: (§1) Single oral dose LD50 in CD-1 mice and CD rats, obtained from Charles River U.K. Ltd., for Cpd. 1 is determined. […] Cpd. 1, dissolved in buffer, or just buffer is administered orally and the mice and rats are observed for 14 days after dosing. After 14 days, the animals are sacrificed and necropsy is performed to check for gross evidence of toxicity.

CD-1 mice = conditions: 14 days
Method: as §1

KLH antibody response = conditions: for increase of antibody titer over control (fold): 200 and 400 mg/kg
Description: The effect of the compounds of this invention on the immune response to specific antigens involves immunization of mice with specific antigens such as bovine serum albumin (BSA) or keyhole limpet hemocyanin (KLH). Following immunization, it is possible to assess the cell-mediated or humoral (antibody) immune response to these antigens by various methods:
(2) Antibody response to soluble antigens such as BSA or KLH can be quantitated using a micro-ELISA solid phase heterogeneous immunoassay. The assay can be designed to quantitate class specific immunoglobulins (i.e., IgG or IgM).
Mice of the C57BL/6 strain are given i.p. injections of either 50, 100, 200 or 400 mg/kg of Cpd. 1 or buffer for ten days (days 1-10). An antigen, keyhole limpet hemocyanin (KLH), is administered intraperitoneally with Freund's Complete Adjuvant (FCA) on days 1, 7, and 13. Blood samples are taken for assay of the antibody response on days 0, 5, 12, and 17. Spleens are removed, lymphocytes isolated and a lymphocyte stimulation assay with PHA, Con-A or KLH antigen as the mitogens is performed on day 17 of the experiment.

FLC-745 target cells = assay: MLTC assay of cytotoxic lymphocyte (CTL) activity, FLC-745 target cells; type: cell-based, mouse, DBA/2
Description: A mixed lymphocyte tumor culture (MLTC) immunoassay, used to determine the cytotoxic lymphocyte (CTL) activity employs lymphocytes from either immunized (sensitized) mice or DBA/2 tumor dormant state animals in various stages of the tumor dormant state (TDS). The assay employs L5178Y target cells labeled with ^51 Chromium and effector cells (sensitized lymphocytes) from the above-mentioned sources. Effector-target cell ratios will vary with different experimental conditions and may or may not include irradiated stimulator L5178Y cells. Results are expressed as % lysis of target cells based on ratio of cpm of test group over cpm of total release (maximum) both of which are corrected for spontaneous release of ^51 Cr. The assay can be performed as an 8 or 18 hour release assay.
An MLTC assay is performed to assess the CTL activity and tumor target cell specificity of Cpd. 1. Tumor dormant spleen cells and normal spleen cells of DBA/2 mice are used as effector cells. Irradiated L5178Y cells are used as stimulator cells. ^51 Cr-labeled L5178Y cells and FLC-745 cells are used as target cells. The effector/target ratios studied are 100:1, 30:1 and 10:1.

## Cc1ccc(C2(O)C(=O)OC3C(O)COC32O)o1.Cc1ccc(C2(O)C(=O)OC3C(O)COC32O)o1.O=C1CCC(=O)O1 (stereo not shown) [Cpd. 1, 2-furylbutyrolactone:succinic anhydride]
C57BL/6 mice; 1,000 mg/kg single i.p.
  Number Dead on Day 3: 0
C57BL/6 mice; 2,000 mg/kg single i.p.
  Number Dead on Day 3: 0
C57BL/6 mice; 4,000 mg/kg single i.p.
  Number Dead on Day 3: 7
C57BL/6 mice; 8,000 mg/kg single i.p.
  Number Dead on Day 3: 10
C57BL/6 mice; 16,000 mg/kg single i.p.
  Number Dead on Day 3: 10
C57BL/6 mice; purified Cpd. 1, single i.p. injection, 4320 min
  LD50: > 3000 mg/kg
CD rats; 5 g/kg oral
  deaths or signs of toxicity: No deaths or signs of toxicity
CD rats; single oral dose
  LD50: > 5000 mg/kg
CD-1 mice; 5 g/kg oral
  deaths or signs of toxicity: No deaths or signs of toxicity
CD-1 mice; single oral dose
  LD50: > 5000 mg/kg
KLH antibody response; 50 mg/kg i.p., Day 5
  Micro-ELISA Titer: N/R
KLH antibody response; 50 mg/kg i.p., Prebleed
  Micro-ELISA Titer: N/R
KLH antibody response; 100 mg/kg i.p., Day 5
  Micro-ELISA Titer: N/R
KLH antibody response; 100 mg/kg i.p., Prebleed
  Micro-ELISA Titer: N/R
KLH antibody response; 200 mg/kg i.p., Day 5
  Micro-ELISA Titer: N/R
KLH antibody response; 200 mg/kg i.p., Prebleed
  Micro-ELISA Titer: N/R
KLH antibody response; 400 mg/kg i.p., Day 5
  Micro-ELISA Titer: N/R
KLH antibody response; 400 mg/kg i.p., Prebleed
  Micro-ELISA Titer: N/R
KLH antibody response; day 12
  increase of antibody titer over control (fold): four-fold
KLH antibody response; day 17
  increase of antibody titer over control (fold): eight-fold
FLC-745 target cells; E + D, E/T 10:1, TDS effectors, no stimulators
  % Lysis: 0.7%
FLC-745 target cells; E + D, E/T 30:1, TDS effectors, no stimulators
  % Lysis: 4.6%
FLC-745 target cells; E + D, E/T 100:1, TDS effectors, no stimulators
  % Lysis: 6.6%
FLC-745 target cells; E + S + D, E/T 10:1, TDS effectors + stimulators
  % Lysis: 0.5%
FLC-745 target cells; E + S + D, E/T 30:1, TDS effectors + stimulators
  % Lysis: 3.6%
FLC-745 target cells; FLC-745 target, TDS effectors with stimulator cells
  enhancement of CTL activity (in words): This effect is not observed in the FLC-745 target control system
FLC-745 target cells; N + D, E/T 10:1, normal spleen cells, no stimulators
  % Lysis: -3.5%
FLC-745 target cells; N + D, E/T 30:1, normal spleen cells, no stimulators
  % Lysis: 0.9%
FLC-745 target cells; N + S + D, E/T 10:1, normal spleen cells + stimulators
  % Lysis: -1.1%
FLC-745 target cells; N + S + D, E/T 30:1, normal spleen cells + stimulators
  % Lysis: -0.8%
FLC-745 target cells; N + S + D, E/T 100:1, normal spleen cells + stimulators
  % Lysis: 5.8%
